Test results taken from patent publication US20110038791A1, “METHODS FOR INHIBITING SIX1 AND EYA PROTEINS” (priority 2008, published 2011).
Like-named read-outs stand apart in the source and are kept apart here. Values belong to the compound of their own block, whether it stands above or below them.

Biological target: T1, human Eya2 Eya Domain (ED) (Homo sapiens, UniProt O00167)
T1 construct: a highly conserved C-terminal Eya domain (ED); made in house; host or cells: E. coli
T1 sequence (O00167 253-538 limits assumed): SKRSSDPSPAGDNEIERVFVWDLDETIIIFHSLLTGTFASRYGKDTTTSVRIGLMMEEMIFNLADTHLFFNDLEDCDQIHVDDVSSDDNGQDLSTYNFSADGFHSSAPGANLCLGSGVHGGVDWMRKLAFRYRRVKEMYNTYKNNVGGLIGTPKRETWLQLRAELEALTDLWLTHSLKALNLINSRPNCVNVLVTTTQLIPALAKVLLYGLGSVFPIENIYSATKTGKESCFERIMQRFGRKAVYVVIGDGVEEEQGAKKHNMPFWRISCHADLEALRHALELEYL
Assay: Inhibition of the phosphatase activity of Eya2 Eya Domain (ED) by known phosphatase inhibitors
Type: biochemical
Details: for IC50: human Eya2 ED, FIG. 20

[1] = at the concentrations that typically completely inhibit their cognate phosphatases

Compound: c1cnc2c(c1)ccc1cccnc12 [(1, 10)-phenanthroline]
effect on ED phosphatase activity [1]: no effect

Compound: C=C1[C@@H](O)[C@@H]2O[C@]3(CC[C@H](/C=C/[C@@H](C)[C@@H]4CC(C)=C[C@@]5(O[C@H](C[C@@](C)(O)C(=O)O)CC[C@H]5O)O4)O3)CC[C@H]2O[C@@H]1[C@@H](O)C[C@H](C)[C@H]1O[C@@]2(CCCCO2)CC[C@H]1C [Okadaic acid]
effect on ED phosphatase activity: no effect

Compound: cyclosporine A
effect on ED phosphatase activity: no effect

Results, then the compound that gave them:

effect on ED phosphatase activity [1]: no effect
Compound: N[C@@H](Cc1ccccc1)C(=O)O [L-phenylalanine]

IC50: 11.3 ± 1.6 mM
Compound: [Na+].[Na+].[O]=[Mo](=[O])([O-])[O-] [Na2MoO4]

IC50: 1.8 ± 0.2 mM
Compound: [Na+].[Na+].[Na+].[O]=[V]([O-])([O-])[O-] [Na3VO4]

IC50: 8.2 ± 2.1 mM
Compound: O=P(O)(O)OC(CO)CO [β-glycerophosphate]
